Experimental findings from patent US20080139624A1, “Oral Dosage Form Comprising Rosiglitazone” (priority 2005, published 2008) are described below.

This data set is described as follows: pH dependent solubility. It counts as physicochemical. Particulars: acidic conditions of the stomach (around pH 2) vs near neutral conditions of the lower intestine (around pH 7).

As to `CN(CCOc1ccc(CC2SC(=O)NC2=O)cc1)c1ccccn1` (stereo not shown) [Compound A, 5-[4-[2-(N-methyl-N-(2 pyridyl)amino)ethoxy]benzyl]thiazolidine-2,4-dione], the pH dependent solubility result is on record as “marked pH dependent solubility”.
